For experiment [1], the system named is delayed type hypersensitivity. The experiment can be described thus: Mouse Delayed Type Hypersensitivity Reaction Suppression Test-1 (SRBC). Format: in vivo. The settings on record: SRBC sensitization; subcutaneous, everyday from 3 days before sensitization, totally 8 days; BALB/c. The procedure: BALB/c mice (male, 7 weeks old) were used. The mice were classified into groups depending on the body weight, each group consisting of 7-8 mice. Each of the mice was sensitized by subcutaneously administering […] of SRBC (8×10^8 in saline) on the heel of the left hing leg. On day 4 from the sensitization, 25 μl of SRBC (8×10^9 in saline) was subcutaneously administered on the right footpad so as to induce delayed type hypersensitivity. The difference in the thicknesses of the right footpad before the induction of reaction and 24 hours after the induction of the reaction was employed as an index of the degree of the reaction.
The test compound was dissolved in 10% DMSO-water and was subcutaneously administered everyday from 3 days before the sensitization to the day of induction of the reaction, totally 8 days. In the control group, 10% DMSO-water alone was administered in the same manner. The volume of administration was 5 ml/kg in both study groups and in the control group.
The % suppression of the delayed type hypersensitivity reaction was calculated according to the following equation: [formula]
wherein A means the difference in the thickness of the right hind leg before and after the reaction in control group, and B means the difference in the thickness of the right hind leg before and after the reaction in the group to which the test compound was administered.

In experiment [2] the test system is Cerebral cortex nerve cells. Nature of the experiment: Brain cell-protecting action, MTT method. The experiment is classed as cell-based, rat. The settings on record: 10 μM. How it is done:
The brain cell-protecting action was examined by MTT [3-(4,5-dimethylthiazol-2-yl)-2,5-diphenyltetrazolium bromide] method. MTT yields a dark blue formazan compound by mitochondria in living cells. This compound was dissolved in isopropanol and absorbance at 570 nm was measured, thereby measuring the number of living cells.
Cerebral cortex nerve cells of fetal rats of 17 days old were placed in wells of a 96-well plate at a population density of 1×10^5 cells/cm^2. Then 10 μM of a test compound was added and the cells were cultured in 200 μl of mixed medium of D-MEM/F.12 (1:1) for 3 days (37° C., 5%CO2). In a control group, the medium alone was added Then […] of MTT solution in PBS (6mg/ml) was added and the mixture was allowed to react for 3 hours (37° C., 5% CO2). After removing the culture medium, 100 μl of isopropanol was added and the absorbance was measured.
The ratio of the absorbances of the study group and the control group was employed as an index of brain cell-protecting action.
On the technique in general: Tetrazolium assays rely on reduction of a dye to a coloured formazan, in cell work by metabolically active cells.

The test system of experiment [3] is immune system. Particulars: in vitro and in vivo; Kokai No. 3-223288; cited from earlier work.
Experiment [4] relates to delayed type hypersensitivity. Nature of the experiment: Delayed type hypersensitivity suppression test using mice from which adrenal glands have been removed. Format: in vivo, mouse. Particulars: for % Suppression: subcutaneous, totally 8 days. The source says: The mechanism of immunosuppression of the compound of the present invention was examined using delayed type hypersensitivity suppression test using mice from which adrenal glands have been removed.
BALB/c mice (male, 7 weeks old) were used, and each group consisted of 4-5 mice. Spleen cells (1×10^7) obtained from a donor mouse (C57BL/6) was subcutaneously administered to sensitize the mice. On Day 7 from the sensitization, the spleen cells (5×10^6) of the donor were subcutaneously administered on the right footpad and spleen cells (5×10^6) obtained from a mouse of the same strain as the recipient mice were subcutaneously administered on the left footpad. Twenty four hours later, the thicknesses of the right and left footpads were measured with a dial thickness gage, and the difference in thicknesses of the right and left footpads before the induction of the reaction and 24 hours after the induction of the reaction was employed as the index of the degree of the reaction.
The adrenectomy was performed by cutting the back of each recipient mouse under anesthesia with ether before the sensitization and removing the adrenal gland. Sham operation was performed by cutting the back of each recipient mouse but not removing the adrenal gland.
The test compound was dissolved in 10% DMSO-water and was subcutaneously administered everyday from the day of sensitization to the day of induction of the reaction, totally 8 days. In the control group, 10% DMSO-water alone was administered in the same manner. The volume of administration was 10 ml/kg in both study groups and in the control groups.

In experiment [5] the test system is delayed type hypersensitivity. Nature of the experiment: Mouse Delayed Type Hypersensitivity Reaction Suppression Test-2 (donor spleen cells, subcutaneous administration). The experiment is classed as in vivo. The settings on record: C57BL/6 spleen cells; subcutaneous everyday from day of sensitization, totally 8 days; BALB/c.

The source of these data is patent US6291470A, “Indole derivatives process for producing the same and medicinal uses of the same” (Toray Industries, Inc., priority 1992, dated 2001).

Consider `Oc1ccc2c3c1O[C@H]1c4[nH]c5ccccc5c4C[C@@]4(O)[C@@H](C2)N(CC2CC2)CC[C@]314` [NTI, reference compound], for which the “% Suppression” value in experiment [1] is “did not suppress”; in experiment [4] (Adrenectomy) it was 0%; in experiment [4] (Sham Operation), 50%; in experiment [5] it was 60%. Also, the “brain cell-protecting action (in words)” value in experiment [2] (MTT) is reported as “has brain cell-protecting action”. Further, the “Ratio of Absorbances” value in experiment [2] (study group / control group, 570 nm, 3 days culture) was determined as 4.21. The “immunosuppressive action (in words)” value in experiment [3] is “exhibits immunosuppressive action in vitro and in vivo”. In addition, in experiment [4] (Adrenectomy vs sham), the “suppressive effect after removing adrenal gland (in words)” value is given as “disappeared by removing adrenal gland”.
